Tests used:
Type in all cases: in vivo
[1] = tested on: wheat (Triticum aestivum L.); assay: Greenhouse herbicide screen, pre-emerge application, crop damage rating; details: PRE emergent, 14 days after application, rating scale 0-100
In short: (§1)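 Scoring at 14 days used a 0–100 scale, 100 being all plants dead, for weed control and crop injury alike. Rates ranged from 15 to 1000 g ai/ha, applied in acetone at 187 l/ha by track sprayer. Post-emerge treatment hit 2–3 leaf plants; pre-emerge treatment hit soil seeded one day earlier.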

[2] = tested on: soybean (Glycine max L., var. Pella 86, SOY); assay: as above; details: PRE emergent, 14 days after application, rating scale 0-100
In short: as §1

[3] = tested on: field corn (Zea mays L., var. Dekalb 535, CORN); assay: as above; details: PRE emergent, 14 days after application, rating scale 0-100
In short: as §1

[4] = tested on: upland rice (Oryza sp., var.Cocodrie, RICE); assay: as above; details: PRE emergent, 14 days after application, rating scale 0-100
In short: as §1

[5] = tested on: wheat (Triticum aestivum L.); assay: Greenhouse herbicide screen, post-emerge application, crop damage rating; details: POST emergent, 14 days after application, scale 0-100
In short: as §1

[6] = tested on: soybean (Glycine max L., var. Pella 86, SOY); assay: as above; details: POST emergent, 14 days after application, scale 0-100
In short: as §1

[7] = tested on: field corn (Zea mays L., var. Dekalb 535, CORN); assay: as above; details: POST emergent, 14 days after application, scale 0-100
In short: as §1

[8] = tested on: upland rice (Oryza sp., var.Cocodrie, RICE); assay: as above; details: POST emergent, 14 days after application, scale 0-100
In short: as §1

[9] = tested on: large crabgrass (Digitaria sanguinalis, DIGSA); assay: Greenhouse herbicide screen, post-emerge application, phytotoxicity rating; details: POST emergent, 14 days after application, scale 0-100
In short: as §1

[10] = tested on: lambsquarters (Chenopodium album, CHEAL); assay: as above; details: POST emergent, 14 days after application, scale 0-100
In short: as §1

[11] = tested on: cocklebur (Xanthium strumarium, XANST); assay: as above; details: POST emergent, 14 days after application, scale 0-100
In short: as §1

[12] = tested on: green foxtail (Setaria viridis, SETVI); assay: as above; details: POST emergent, 14 days after application, scale 0-100
In short: as §1

[13] = tested on: redroot pigweed (Amaranthus retrofiexus, AMARE); assay: as above; details: POST emergent, 14 days after application
In short: as §1

[14] = tested on: ivyleaf morningglory (Ipomoea hederacea, IPOHE); assay: as above; details: POST emergent, 14 days after application, scale 0-100
In short: as §1

[15] = tested on: johnsongrass (Sorghum halepense, SORHA); assay: as above; details: POST emergent, 14 days after application, scale 0-100
In short: as §1

[16] = tested on: barnyardgrass (Echinochloa crus-galli, ECHCG); assay: as above; details: POST emergent, 14 days after application, scale 0-100
In short: as §1

[17] = tested on: sicklepod (Cassia obtusifolia, CASOB); assay: as above; details: POST emergent, 14 days after application, scale 0-100
In short: as §1

[18] = tested on: velvetleaf (Abutilon theophrasti, ABUTH); assay: as above; details: POST emergent, 14 days after application, scale 0-100
In short: as §1

[19] = tested on: common ragweed (Ambrosia artemisiifolia L., AMBEL); assay: as above; details: POST emergent, 14 days after application, scale 0-100
In short: as §1

[20] = tested on: large crabgrass (Digitaria sanguinalis, DIGSA); assay: Greenhouse herbicide screen, pre-emerge application, phytotoxicity rating; details: PRE emergent, 14 days after application, rating scale 0-100
In short: as §1

[21] = tested on: lambsquarters (Chenopodium album, CHEAL); assay: as above; details: PRE emergent, 14 days after application, rating scale 0-100
In short: as §1

[22] = tested on: cocklebur (Xanthium strumarium, XANST); assay: as above; details: PRE emergent, 14 days after application, rating scale 0-100
In short: as §1

[23] = tested on: green foxtail (Setaria viridis, SETVI); assay: as above; details: PRE emergent, 14 days after application, rating scale 0-100
In short: as §1

[24] = tested on: redroot pigweed (Amaranthus retrofiexus, AMARE); assay: as above; details: PRE emergent, 14 days after application, rating scale 0-100
In short: as §1

[25] = tested on: ivyleaf morningglory (Ipomoea hederacea, IPOHE); assay: as above; details: PRE emergent, 14 days after application, rating scale 0-100
In short: as §1

[26] = tested on: johnsongrass (Sorghum halepense, SORHA); assay: as above; details: PRE emergent, 14 days after application, rating scale 0-100
In short: as §1

[27] = tested on: barnyardgrass (Echinochloa crus-galli, ECHCG); assay: as above; details: PRE emergent, 14 days after application, rating scale 0-100
In short: as §1

[28] = tested on: sicklepod (Cassia obtusifolia, CASOB); assay: as above; details: PRE emergent, 14 days after application, rating scale 0-100
In short: as §1

[29] = tested on: velvetleaf (Abutilon theophrasti, ABUTH); assay: as above; details: PRE emergent, 14 days after application, rating scale 0-100
In short: as §1

[30] = tested on: common ragweed (Ambrosia artemisiifolia L., AMBEL); assay: as above; details: PRE emergent, 14 days after application, rating scale 0-100
In short: as §1

SMILES: Cn1c(C(F)(F)F)cc(=O)n(-c2cc(C(=O)NNC(=O)OC(C)(C)C)c(Cl)cc2F)c1=O [Compound 1-24, 2-chloro-5-(3,6-dihydro-3-methyl-2,6-dioxo-4-(trifluoromethyl)-1(2H)-pyrimidinyl)-4-fluoro-benzoic Acid, 2-(1,1-dimethylethyloxy)carbonyl Hydrazide]
- crop damage rating WHEAT ([1]; 63 g ai/ha): 20
- crop damage rating WHEAT ([1]; 250 g ai/ha): 60
- crop damage rating SOY ([2]; 63 g ai/ha): 50
- crop damage rating SOY ([2]; 250 g ai/ha): 100
- crop damage rating CORN ([3]; 63 g ai/ha): 0
- crop damage rating CORN ([3]; 250 g ai/ha): 100
- crop damage rating RICE ([4]; 63 g ai/ha): 5
- crop damage rating RICE ([4]; 250 g ai/ha): 30
- crop damage rating WHEAT ([5]; 63 g ai/ha): 15
- crop damage rating WHEAT ([5]; 250 g ai/ha): 60
- crop damage rating SOY ([6]; 63 g ai/ha): 8
- crop damage rating SOY ([6]; 250 g ai/ha): 15
- crop damage rating CORN ([7]; 63 g ai/ha): 90
- crop damage rating CORN ([7]; 250 g ai/ha): 95
- crop damage rating RICE ([8]; 63 g ai/ha): 60
- crop damage rating RICE ([8]; 250 g ai/ha): 65
- phytotoxicity rating DIGSA ([9]; 63 g ai/ha): 20
- phytotoxicity rating DIGSA ([9]; 250 g ai/ha): 35
- phytotoxicity rating CHEAL ([10]; 63 g ai/ha): 100
- phytotoxicity rating CHEAL ([10]; 250 g ai/ha): 100
- phytotoxicity rating XANST ([11]; 63 g ai/ha): 100
- phytotoxicity rating XANST ([11]; 250 g ai/ha): 100
- phytotoxicity rating SETVI ([12]; 63 g ai/ha): 35
- phytotoxicity rating SETVI ([12]; 250 g ai/ha): 60
- phytotoxicity rating AMARE ([13]; 63 g ai/ha, scale 0-100 (0 no damage, 100 complete death)): 100
- phytotoxicity rating AMARE ([13]; 250 g ai/ha, scale 0-100): 100
- phytotoxicity rating IPOHE ([14]; 63 g ai/ha): 100
- phytotoxicity rating IPOHE ([14]; 250 g ai/ha): 100
- phytotoxicity rating SORHA ([15]; 63 g ai/ha): 35
- phytotoxicity rating SORHA ([15]; 250 g ai/ha): 55
- phytotoxicity rating ECHCO ([16]; 63 g ai/ha): 35
- phytotoxicity rating ECHCO ([16]; 250 g ai/ha): 50
- phytotoxicity rating CASOB ([17]; 63 g ai/ha): 75
- phytotoxicity rating CASOB ([17]; 250 g ai/ha): 95
- phytotoxicity rating ABUTH ([18]; 63 g ai/ha): 100
- phytotoxicity rating ABUTH ([18]; 250 g ai/ha): 100
- phytotoxicity rating AMBEL ([19]; 63 g ai/ha): 100
- phytotoxicity rating AMBEL ([19]; 250 g ai/ha): 100
- phytotoxicity rating DIGSA ([20]; 63 g ai/ha): 0
- phytotoxicity rating DIGSA ([20]; 250 g ai/ha): 40
- phytotoxicity rating CHEAL ([21]; 63 g ai/ha): 100
- phytotoxicity rating CHEAL ([21]; 250 g ai/ha): 100
- phytotoxicity rating XANST ([22]; 63 g ai/ha): 50
- phytotoxicity rating XANST ([22]; 250 g ai/ha): 90
- phytotoxicity rating SETVI ([23]; 63 g ai/ha): 10
- phytotoxicity rating SETVI ([23]; 250 g ai/ha): 45
- phytotoxicity rating AMARE ([24]; 63 g ai/ha): 80
- phytotoxicity rating AMARE ([24]; 250 g ai/ha): 99
- phytotoxicity rating IPOHE ([25]; 63 g ai/ha): 100
- phytotoxicity rating IPOHE ([25]; 250 g ai/ha): 100
- phytotoxicity rating SORHA ([26]; 63 g ai/ha): 0
- phytotoxicity rating SORHA ([26]; 250 g ai/ha): 40
- phytotoxicity rating ECHCG ([27]; 63 g ai/ha): 0
- phytotoxicity rating ECHCG ([27]; 250 g ai/ha): 50
- phytotoxicity rating CASOB ([28]; 63 g ai/ha): 50
- phytotoxicity rating CASOB ([28]; 250 g ai/ha): 95
- phytotoxicity rating ABUTH ([29]; 63 g ai/ha): 98
- phytotoxicity rating ABUTH ([29]; 250 g ai/ha): 99
- phytotoxicity rating AMBEL ([30]; 63 g ai/ha): 50
- phytotoxicity rating AMBEL ([30]; 250 g ai/ha): 75
